In the first test the target is Glutamyl aminopeptidase (Oryctolagus cuniculus). The experiment in a line: Inhibition of aminopeptidase A (APA).
Sequence of Aminopeptidase N (Sus scrofa) (P15145 whole entry, looked up): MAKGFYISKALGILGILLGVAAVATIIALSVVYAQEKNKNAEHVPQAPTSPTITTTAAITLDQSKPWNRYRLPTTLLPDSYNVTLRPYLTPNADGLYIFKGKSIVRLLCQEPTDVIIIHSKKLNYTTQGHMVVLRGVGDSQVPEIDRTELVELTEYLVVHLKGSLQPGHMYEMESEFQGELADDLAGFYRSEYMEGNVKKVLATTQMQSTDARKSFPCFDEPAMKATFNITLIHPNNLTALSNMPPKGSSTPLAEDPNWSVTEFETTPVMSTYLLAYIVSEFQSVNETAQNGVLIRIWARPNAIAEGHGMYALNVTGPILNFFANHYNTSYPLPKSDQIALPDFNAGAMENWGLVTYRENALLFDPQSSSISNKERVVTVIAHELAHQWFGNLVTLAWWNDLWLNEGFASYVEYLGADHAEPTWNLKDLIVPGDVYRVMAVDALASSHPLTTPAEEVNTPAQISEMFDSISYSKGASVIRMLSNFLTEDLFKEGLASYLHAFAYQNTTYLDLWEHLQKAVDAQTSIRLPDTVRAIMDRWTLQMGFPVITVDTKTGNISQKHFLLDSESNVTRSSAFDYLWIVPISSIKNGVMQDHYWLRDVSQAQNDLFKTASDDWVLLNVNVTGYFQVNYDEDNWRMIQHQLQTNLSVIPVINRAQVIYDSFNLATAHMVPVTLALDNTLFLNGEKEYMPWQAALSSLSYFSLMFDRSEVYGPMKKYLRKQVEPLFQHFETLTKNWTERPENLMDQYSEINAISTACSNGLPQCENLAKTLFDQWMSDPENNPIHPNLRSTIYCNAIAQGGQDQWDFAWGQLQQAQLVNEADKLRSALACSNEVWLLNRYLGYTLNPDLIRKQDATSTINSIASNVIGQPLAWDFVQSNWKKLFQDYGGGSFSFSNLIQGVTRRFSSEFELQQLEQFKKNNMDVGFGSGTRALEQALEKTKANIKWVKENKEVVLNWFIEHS
For the compound `NC(CS)c1cccc(C(=O)O)c1` (configuration not stated) [1-(3-Carboxy-phenyl)-2-mercapto-ethyl-ammonium], the Ki worked out at 2400 nM.
Same read-out and setting: then `NC(CS)CC1CCCC(C(=O)O)C1` (configuration not stated) [2-(3-Carboxy-cyclohexyl)-1-mercaptomethyl-ethyl-ammonium], with greater than 3000 nM.
On the same count and under the same terms, then `NC(CS)Cc1ccc(C(=O)O)cc1` (configuration not stated) [2-(4-Carboxy-phenyl)-1-mercaptomethyl-ethyl-ammonium], with 2700 nM; and `NC(CS)Cc1cccc(C(=O)O)c1` (configuration not stated) [3-(2-Amino-3-mercapto-propyl)-benzoic acid], with 840 nM; and `NC(CS)c1ccc(C(=O)O)cc1` (configuration not stated) [4-(1-Amino-2-mercapto-ethyl)-benzoic acid], with greater than 3000 nM.
In the case of `NC(CS)CC1CCC(C(=O)O)CC1` (configuration not stated) [4-(2-Amino-3-mercapto-propyl)-cyclohexanecarboxylic acid], the Ki was 1900 nM.
Regarding `N[C@@H](CS)CCC(=O)O` [(R)-4-Amino-5-mercapto-pentanoic acid], the Ki was 2300 nM.
Same read-out and setting: then `N[C@H](CCS)CCC(=O)O` [(S)-4-Amino-6-mercapto-hexanoic acid], with 2000 nM.
Same read-out and setting: then `NC(CS)CC1CCC(CC(=O)O)CC1` (configuration not stated) [[4-(2-Amino-3-mercapto-propyl)-cyclohexyl]-acetic acid], with 2800 nM; and `NC(CS)Cc1ccc(CC(=O)O)cc1` (configuration not stated) [[4-(2-Amino-3-mercapto-propyl)-phenyl]-acetic acid], with 2200 nM.

Another test concerns the target Aminopeptidase N (Sus scrofa) (UniProt P15145). The experiment in a line: Inhibitory potency against aminopeptidase N (APN).
Compound `NC(Cc1ccccc1)CP(=O)(O)O` (configuration not stated) [1-Benzyl-2-phosphono-ethyl-ammonium] yielded an IC50 of 500000 nM.
The same measure, in the same setting: then `NC(CC(=O)O)Cc1ccccc1` (configuration not stated) [3-Amino-4-phenyl-butyric acid], with 800000 nM.

The values are drawn from BindingDB's records for doi:10.1021/jm00035a014 (University of Paris, 1994).
